Results from PubChem BioAssay (NCI).
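Compound exposure: 48 hours, 5 concentrations, 96-well plates. GI50 marks 50% less growth. TGI: concentration producing complete growth inhibition.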

What was measured:
Assay in all cases: NCI anticancer screen, dose series, 48 h
SN12C renal = tested on: SN12C renal
KM12 colon = tested on: KM12 colon
HOP-62 NSCLC = tested on: HOP-62 NSCLC
NCI-H226 lung = tested on: NCI-H226 lung
UACC-257 melanoma = tested on: UACC-257 melanoma
SW-620 colon = tested on: SW-620 colon
SNB-19 CNS = tested on: SNB-19 CNS
786-0 renal = tested on: 786-0 renal
U251 CNS = tested on: U251 CNS
COLO 205 colon = tested on: COLO 205 colon
MDA-MB-435 = tested on: MDA-MB-435
OVCAR-3 ovarian = tested on: OVCAR-3 ovarian
BT-549 breast = tested on: BT-549 breast
SF-268 CNS = tested on: SF-268 CNS
LOX IMVI melanoma = tested on: LOX IMVI melanoma
OVCAR-5 ovarian = tested on: OVCAR-5 ovarian
RPMI-8226 leukemia = tested on: RPMI-8226 leukemia
NCI-H522 lung = tested on: NCI-H522 lung
SF-539 CNS = tested on: SF-539 CNS
SK-MEL-2 melanoma = tested on: SK-MEL-2 melanoma
HCT-116 colon = tested on: HCT-116 colon
IGROV1 ovarian = tested on: IGROV1 ovarian
HCT-15 colon = tested on: HCT-15 colon
MOLT-4 leukemia = tested on: MOLT-4 leukemia
UACC-62 melanoma = tested on: UACC-62 melanoma
SF-295 CNS = tested on: SF-295 CNS
OVCAR-4 ovarian = tested on: OVCAR-4 ovarian
RXF 393 renal = tested on: RXF 393 renal
HT29 colon = tested on: HT29 colon
ACHN renal = tested on: ACHN renal
OVCAR-8 ovarian = tested on: OVCAR-8 ovarian
NCI/ADR-RES ovarian = tested on: NCI/ADR-RES ovarian
SNB-75 CNS = tested on: SNB-75 CNS
MCF7 breast = tested on: MCF7 breast
HS 578T breast = tested on: HS 578T breast
TK-10 renal = tested on: TK-10 renal
DU-145 prostate = tested on: DU-145 prostate
M14 melanoma = tested on: M14 melanoma
A498 renal = tested on: A498 renal
T-47D breast = tested on: T-47D breast
UO-31 renal = tested on: UO-31 renal
NCI-H460 lung = tested on: NCI-H460 lung
HL-60(TB) leukemia = tested on: HL-60(TB) leukemia
HCC-2998 colon = tested on: HCC-2998 colon
SR leukemia = tested on: SR leukemia
A549 NSCLC = tested on: A549 NSCLC
SK-OV-3 ovarian = tested on: SK-OV-3 ovarian
HOP-92 NSCLC = tested on: HOP-92 NSCLC
PC-3 prostate = tested on: PC-3 prostate
SK-MEL-5 melanoma = tested on: SK-MEL-5 melanoma
NCI-H23 lung = tested on: NCI-H23 lung
EKVX NSCLC = tested on: EKVX NSCLC
MALME-3M melanoma = tested on: MALME-3M melanoma
SK-MEL-28 melanoma = tested on: SK-MEL-28 melanoma
MDA-MB-231 breast = tested on: MDA-MB-231 breast

COc1ccc2c(c1)[C@]1(C[C@H]1c1ccc3c(/C=C/c4ccc(CN5C[C@@H](C)O[C@@H](C)C5)cc4)n[nH]c3c1)C(=O)N2
GI50 (SN12C renal): 5.15 µM | TGI (SN12C renal): > 56.7 µM | GI50 (KM12 colon): 0.0143 µM | TGI (KM12 colon): > 73.6 µM | GI50 (HOP-62 NSCLC): 8.81 µM | TGI (HOP-62 NSCLC): > 100 µM | GI50 (NCI-H226 lung): 14.5 µM | TGI (NCI-H226 lung): > 100 µM | GI50 (UACC-257 melanoma): 6.8 µM | TGI (UACC-257 melanoma): > 60.5 µM | GI50 (SW-620 colon): 2.46 µM | TGI (SW-620 colon): > 61 µM | GI50 (SNB-19 CNS): 9.74 µM | TGI (SNB-19 CNS): > 100 µM | GI50 (786-0 renal): 2.3 µM | TGI (786-0 renal): 8.58 µM | GI50 (U251 CNS): 5.14 µM | TGI (U251 CNS): 45.6 µM | GI50 (COLO 205 colon): < 0.0209 µM | TGI (COLO 205 colon): 15.1 µM | GI50 (MDA-MB-435): 3.75 µM | TGI (MDA-MB-435): 21.8 µM | GI50 (OVCAR-3 ovarian): 4.19 µM | TGI (OVCAR-3 ovarian): 18.5 µM | GI50 (BT-549 breast): 1.75 µM | TGI (BT-549 breast): 5.29 µM | GI50 (SF-268 CNS): 4.63 µM | TGI (SF-268 CNS): > 90.6 µM | GI50 (LOX IMVI melanoma): 1.96 µM | TGI (LOX IMVI melanoma): 10.4 µM | GI50 (OVCAR-5 ovarian): 8.26 µM | TGI (OVCAR-5 ovarian): > 100 µM | GI50 (RPMI-8226 leukemia): 1.59 µM | TGI (RPMI-8226 leukemia): > 100 µM | GI50 (NCI-H522 lung): 6.4 µM | TGI (NCI-H522 lung): > 100 µM | GI50 (SF-539 CNS): 1.63 µM | TGI (SF-539 CNS): 4.63 µM | GI50 (SK-MEL-2 melanoma): 8.28 µM | TGI (SK-MEL-2 melanoma): > 100 µM | GI50 (HCT-116 colon): 1.77 µM | TGI (HCT-116 colon): 12.1 µM | GI50 (IGROV1 ovarian): 9.69 µM | TGI (IGROV1 ovarian): > 100 µM | GI50 (HCT-15 colon): 3.34 µM | TGI (HCT-15 colon): > 100 µM | GI50 (MOLT-4 leukemia): 2.23 µM | TGI (MOLT-4 leukemia): > 100 µM | GI50 (UACC-62 melanoma): 9.79 µM | TGI (UACC-62 melanoma): 39.6 µM | GI50 (SF-295 CNS): 1.79 µM | TGI (SF-295 CNS): > 100 µM | GI50 (OVCAR-4 ovarian): 2.65 µM | TGI (OVCAR-4 ovarian): > 100 µM | GI50 (RXF 393 renal): 1.85 µM | TGI (RXF 393 renal): 4.4 µM | GI50 (HT29 colon): 2.83 µM | TGI (HT29 colon): 11.6 µM | GI50 (ACHN renal): 2.86 µM | TGI (ACHN renal): > 100 µM | GI50 (OVCAR-8 ovarian): 5.06 µM | TGI (OVCAR-8 ovarian): 51.1 µM | GI50 (NCI/ADR-RES ovarian): 2.71 µM | TGI (NCI/ADR-RES ovarian): 24.9 µM | GI50 (SNB-75 CNS): 1.84 µM | TGI (SNB-75 CNS): 13.4 µM | GI50 (MCF7 breast): 1.59 µM | TGI (MCF7 breast): > 75.4 µM | GI50 (HS 578T breast): 4.84 µM | TGI (HS 578T breast): 49.6 µM | GI50 (TK-10 renal): 11.8 µM | TGI (TK-10 renal): > 61.3 µM | GI50 (DU-145 prostate): 4.91 µM | TGI (DU-145 prostate): 45.6 µM | GI50 (M14 melanoma): 3.25 µM | TGI (M14 melanoma): 20.6 µM | GI50 (A498 renal): 2.34 µM | TGI (A498 renal): 30.6 µM | GI50 (T-47D breast): 2.68 µM | TGI (T-47D breast): > 86.9 µM | GI50 (UO-31 renal): 2.84 µM | TGI (UO-31 renal): > 100 µM | GI50 (NCI-H460 lung): 1.6 µM | TGI (NCI-H460 lung): 12.1 µM | GI50 (HL-60(TB) leukemia): 2.69 µM | TGI (HL-60(TB) leukemia): 13.7 µM | GI50 (HCC-2998 colon): 4.18 µM | TGI (HCC-2998 colon): > 59.7 µM | GI50 (SR leukemia): 0.269 µM | TGI (SR leukemia): 6.61 µM | GI50 (A549 NSCLC): 2.72 µM | TGI (A549 NSCLC): > 55.4 µM | GI50 (SK-OV-3 ovarian): 15.1 µM | TGI (SK-OV-3 ovarian): > 100 µM | GI50 (HOP-92 NSCLC): 5.34 µM | TGI (HOP-92 NSCLC): 39.1 µM | GI50 (PC-3 prostate): 2.54 µM | TGI (PC-3 prostate): > 100 µM | GI50 (SK-MEL-5 melanoma): 1.77 µM | TGI (SK-MEL-5 melanoma): 3.87 µM | GI50 (NCI-H23 lung): 2.87 µM | TGI (NCI-H23 lung): 31.8 µM | GI50 (EKVX NSCLC): 6.01 µM | TGI (EKVX NSCLC): > 100 µM | GI50 (MALME-3M melanoma): 2.22 µM | TGI (MALME-3M melanoma): 8.63 µM | GI50 (SK-MEL-28 melanoma): 6.2 µM | TGI (SK-MEL-28 melanoma): 38.1 µM | GI50 (MDA-MB-231 breast): 4.35 µM | TGI (MDA-MB-231 breast): > 54 µM
